Measured values from ChEMBL document CHEMBL3045679, “Microwave-assisted synthesis and pharmacological studies of novel 5-deazaalloxazine derivatives” (2012).
Values after ≈ are worked out from the molar mass of the structure shown. Active and inactive are the calls of the source. The rule behind the calls is not given here.

Key:
[1] = test system: Lipomyces lipofer; test: Antifungal activity against Lipomyces lipofer NCIM 3252 at 1000 ug/disk after 72 hr by disk diffusion method; format: functional; conditions: NCIM 3252, 72 h, read-out: DIZ
[2] = test system: Lipomyces lipofer; test: Antifungal activity against Lipomyces lipofer NCIM 3252 at 500 ug/disk after 72 hr by disk diffusion method; format: functional; conditions: for zone of inhibition at 500 µg/disc: NCIM 3252, 72 h, read-out: DIZ
[3] = test system: Candida albicans; test: Antifungal activity against Candida albicans NCIM 3471 at 1000 ug/disk after 72 hr by disk diffusion method; format: functional; conditions: NCIM 3471, 72 h, read-out: DIZ
[4] = test system: Candida albicans; test: Antifungal activity against Candida albicans NCIM 3471 at 500 ug/disk after 72 hr by disk diffusion method; format: functional; conditions: for zone of inhibition at 500 µg/disc: NCIM 3471, 72 h, read-out: DIZ
[5] = test system: Rhodotorula mucilaginosa; test: Antifungal activity against Rhodotorula mucilaginosa NCIM 3174 at 1000 ug/disk after 72 hr by disk diffusion method; format: functional; conditions: NCIM 3174, 72 h, read-out: DIZ
[6] = test system: Rhodotorula mucilaginosa; test: Antifungal activity against Rhodotorula mucilaginosa NCIM 3174 at 500 ug/disk after 72 hr by disk diffusion method; format: functional; conditions: for zone of inhibition at 500 µg/disc: NCIM 3174, 72 h, read-out: DIZ
[7] = test system: Aspergillus flavus; test: Antifungal activity against Aspergillus flavus NCIM 535 at 1000 ug/disk after 72 hr by disk diffusion method; format: functional; conditions: NCIM 535, 72 h, read-out: DIZ
[8] = test system: Aspergillus flavus; test: Antifungal activity against Aspergillus flavus NCIM 535 at 500 ug/disk after 72 hr by disk diffusion method; format: functional; conditions: NCIM 535, 72 h, read-out: DIZ
[9] = test system: Aspergillus niger; test: Antifungal activity against Aspergillus niger NCIM 1196 at 1000 ug/disk after 72 hr by disk diffusion method; format: functional; conditions: for zone of inhibition at 1000 µg/disc: NCIM 1196, 72 h, read-out: DIZ
[10] = test system: Aspergillus niger; test: Antifungal activity against Aspergillus niger NCIM 1196 at 500 ug/disk after 72 hr by disk diffusion method; format: functional
[11] = test system: Penicillium chrysogenum; test: Antifungal activity against Penicillium chrysogenum NCIM 707 at 1000 ug/disk after 72 hr by disk diffusion method; format: functional; conditions: NCIM 707, 72 h, read-out: DIZ
[12] = test system: Penicillium chrysogenum; test: Antifungal activity against Penicillium chrysogenum NCIM 707 at 500 ug/disk after 72 hr by disk diffusion method; format: functional; conditions: for zone of inhibition at 500 µg/disc: NCIM 707, 72 h, read-out: DIZ
[13] = test system: Streptomyces albus; test: Antibacterial activity against Streptomyces albus NCIM 2178 at 1000 ug/disk after 24 hr by disk diffusion method; format: functional; conditions: NCIM 2178, 24 h, read-out: DIZ
[14] = test system: Streptomyces albus; test: Antibacterial activity against Streptomyces albus NCIM 2178 at 500 ug/disk after 24 hr by disk diffusion method; format: functional, organism-based
[15] = test system: Bacillus cereus; test: Antibacterial activity against Bacillus cereus NCIM 2155 at 1000 ug/disk after 24 hr by disk diffusion method; format: functional; conditions: NCIM 2155, 24 h, read-out: DIZ
[16] = test system: Bacillus cereus; test: Antibacterial activity against Bacillus cereus NCIM 2155 at 500 ug/disk after 24 hr by disk diffusion method; format: functional; conditions: NCIM 2155, 24 h, read-out: DIZ
[17] = test system: Bacillus subtilis; test: Antibacterial activity against Bacillus subtilis NCIM 2063 at 1000 ug/disk after 24 hr by disk diffusion method; format: functional; conditions: NCIM 2063, 24 h, read-out: DIZ
[18] = test system: Bacillus subtilis; test: Antibacterial activity against Bacillus subtilis NCIM 2063 at 500 ug/disk after 24 hr by disk diffusion method; format: functional; conditions: for zone of inhibition at 500 µg/disc: NCIM 2063, 24 h, read-out: DIZ
[19] = test system: Klebsiella aerogenes; test: Antibacterial activity against Enterobacter aerogenes NCIM 2239 at 1000 ug/disk after 24 hr by disk diffusion method; format: functional; conditions: NCIM 2239, 24 h, read-out: DIZ
[20] = test system: Klebsiella aerogenes; test: Antibacterial activity against Enterobacter aerogenes NCIM 2239 at 500 ug/disk after 24 hr by disk diffusion method; format: functional; conditions: for zone of inhibition at 500 µg/disc: NCIM 2239, 24 h, read-out: DIZ
[21] = test system: Pseudomonas aeruginosa; test: Antibacterial activity against Pseudomonas aeruginosa NCIM 2200 at 1000 ug/disk after 24 hr by disk diffusion method; format: functional; conditions: NCIM 2200, 24 h, read-out: DIZ
[22] = test system: Pseudomonas aeruginosa; test: Antibacterial activity against Pseudomonas aeruginosa NCIM 2200 at 500 ug/disk after 24 hr by disk diffusion method; format: functional; conditions: for zone of inhibition at 500 µg/disc: NCIM 2200, 24 h, read-out: DIZ
[23] = test system: Escherichia coli; test: Antibacterial activity against Escherichia coli NCIM 2065 at 1000 ug/disk after 24 hr by disk diffusion method; format: functional; conditions: NCIM 2065, 24 h, read-out: DIZ
[24] = test system: Escherichia coli; test: Antibacterial activity against Escherichia coli NCIM 2065 at 500 ug/disk after 24 hr by disk diffusion method; format: functional; conditions: for zone of inhibition at 500 µg/disc: NCIM 2065, 24 h, read-out: DIZ
[25] = test system: Bacillus subtilis; test: Antibacterial activity against Bacillus subtilis NCIM 2063 after 24 hr by broth dilution assay; format: functional; conditions: NCIM 2063, 24 h
[26] = test system: Klebsiella aerogenes; test: Antibacterial activity against Enterobacter aerogenes NCIM 2239 after 24 hr by broth dilution assay; format: functional; conditions: NCIM 2239, 24 h
[27] = test system: Pseudomonas aeruginosa; test: Antibacterial activity against Pseudomonas aeruginosa NCIM 2200 after 24 hr by broth dilution assay; format: functional; conditions: NCIM 2200, 24 h
[28] = test system: Escherichia coli; test: Antibacterial activity against Escherichia coli NCIM 2065 after 24 hr by broth dilution assay; format: functional; conditions: NCIM 2065, 24 h
[29] = test system: Lipomyces lipofer; test: Antifungal activity against Lipomyces lipofer NCIM 3252 after 72 hr by broth dilution assay; format: functional; conditions: NCIM 3252, 72 h
[30] = test system: Candida albicans; test: Antifungal activity against Candida albicans NCIM 3471 after 72 hr by broth dilution assay; format: functional; conditions: NCIM 3471, 72 h
[31] = test system: Rhodotorula mucilaginosa; test: Antifungal activity against Rhodotorula mucilaginosa NCIM 3174 after 72 hr by broth dilution assay; format: functional; conditions: NCIM 3174, 72 h
[32] = test system: Aspergillus flavus; test: Antifungal activity against Aspergillus flavus NCIM 535 after 72 hr by broth dilution assay; format: functional; conditions: NCIM 535, 72 h
[33] = test system: Aspergillus niger; test: Antifungal activity against Aspergillus niger NCIM 1196 after 72 hr by broth dilution assay; format: functional; conditions: NCIM 1196, 72 h
[34] = test system: Penicillium chrysogenum; test: Antifungal activity against Penicillium chrysogenum NCIM 707 after 72 hr by broth dilution assay; format: functional; conditions: NCIM 707, 72 h
[35] = test system: Streptomyces albus; test: Antibacterial activity against Streptomyces albus NCIM 2178 after 24 hr by broth dilution assay; format: functional; conditions: NCIM 2178, 24 h
[36] = test system: Bacillus cereus; test: Antibacterial activity against Bacillus cereus NCIM 2155 after 24 hr by broth dilution assay; format: functional; conditions: NCIM 2155, 24 h

MIC [25] | MIC [26] | MIC [27] | MIC [28] | MIC [29] | SMILES | zone of inhibition at 1000 µg/disc [1] | zone of inhibition at 1000 µg/disc [3] | zone of inhibition at 1000 µg/disc [5] | zone of inhibition at 1000 µg/disc [7] | zone of inhibition at 500 µg/disc [8] | diameter of the inhibition zone (DIZ) [10] | zone of inhibition at 1000 µg/disc [11] | zone of inhibition at 1000 µg/disc [13] | diameter of the inhibition zone (DIZ) [14] | zone of inhibition at 1000 µg/disc [15] | zone of inhibition at 500 µg/disc [16] | zone of inhibition at 1000 µg/disc [17] | zone of inhibition at 1000 µg/disc [19] | zone of inhibition at 1000 µg/disc [21] | zone of inhibition at 1000 µg/disc [23] | also measured
15.6 µg/mL (≈ 73.2 µM) | 31.2 µg/mL (≈ 146 µM) | 31.2 µg/mL (≈ 146 µM) | 3.9 µg/mL (≈ 18.3 µM) | 62.5 µg/mL (≈ 293 µM) | O=c1[nH]c(=O)c2cc3ccccc3nc2[nH]1 | 11 mm | 12 mm | 11 mm | 14 mm | 11 mm | inactive | 13 mm | 13 mm | inactive | 13 mm | 9 mm | 11 mm | 11 mm | 14 mm | 13 mm | zone of inhibition at 500 µg/disc [2]: 9 mm; zone of inhibition at 500 µg/disc [4]: 9 mm; zone of inhibition at 500 µg/disc [6]: 10 mm; zone of inhibition at 1000 µg/disc [9]: 10 mm; zone of inhibition at 500 µg/disc [12]: 8 mm; zone of inhibition at 500 µg/disc [18]: 8 mm; zone of inhibition at 500 µg/disc [20]: 8 mm; zone of inhibition at 500 µg/disc [22]: 10 mm; zone of inhibition at 500 µg/disc [24]: 11 mm; MIC [30]: 15.6 µg/mL (≈ 73.2 µM); MIC [31]: 7.8 µg/mL (≈ 36.6 µM); MIC [32]: 3.9 µg/mL (≈ 18.3 µM); MIC [33]: 125 µg/mL (≈ 586 µM); MIC [34]: 7.8 µg/mL (≈ 36.6 µM); MIC [35]: 31.2 µg/mL (≈ 146 µM); MIC [36]: 31.2 µg/mL (≈ 146 µM)
31.2 µg/mL (≈ 137 µM) | 15.6 µg/mL (≈ 68.7 µM) | 7.8 µg/mL (≈ 34.3 µM) | 3.9 µg/mL (≈ 17.2 µM) | 31.2 µg/mL (≈ 137 µM) | Cc1cccc2cc3c(=O)[nH]c(=O)[nH]c3nc12 | 13 mm | 11 mm | 13 mm | 13 mm | 9 mm | inactive | 9 mm | 10 mm | inactive | 12 mm | 11 mm | 10 mm | 13 mm | 11 mm | 15 mm | diameter of the inhibition zone (DIZ) [2]: inactive; diameter of the inhibition zone (DIZ) [4]: inactive; diameter of the inhibition zone (DIZ) [6]: inactive; diameter of the inhibition zone (DIZ) [9]: inactive; diameter of the inhibition zone (DIZ) [12]: inactive; diameter of the inhibition zone (DIZ) [18]: inactive; diameter of the inhibition zone (DIZ) [20]: inactive; diameter of the inhibition zone (DIZ) [22]: inactive; zone of inhibition at 500 µg/disc [24]: 14 mm; MIC [30]: 31.2 µg/mL (≈ 137 µM); MIC [31]: 15.6 µg/mL (≈ 68.7 µM); MIC [32]: 7.8 µg/mL (≈ 34.3 µM); MIC [33]: 125 µg/mL (≈ 550 µM); MIC [34]: 62.5 µg/mL (≈ 275 µM); MIC [35]: 62.5 µg/mL (≈ 275 µM); MIC [36]: 15.6 µg/mL (≈ 68.7 µM)
15.6 µg/mL (≈ 68.7 µM) | 7.8 µg/mL (≈ 34.3 µM) | 3.9 µg/mL (≈ 17.2 µM) | 7.8 µg/mL (≈ 34.3 µM) | 15.6 µg/mL (≈ 68.7 µM) | Cc1ccc2nc3[nH]c(=O)[nH]c(=O)c3cc2c1 | 13 mm | 10 mm | 13 mm | 10 mm | 9 mm | inactive | 11 mm | 9 mm | inactive | 13 mm | 11 mm | 11 mm | 11 mm | 17 mm | 12 mm | zone of inhibition at 500 µg/disc [2]: 11 mm; zone of inhibition at 500 µg/disc [4]: 8 mm; zone of inhibition at 500 µg/disc [6]: 9 mm; zone of inhibition at 1000 µg/disc [9]: 11 mm; zone of inhibition at 500 µg/disc [12]: 10 mm; zone of inhibition at 500 µg/disc [18]: 9 mm; zone of inhibition at 500 µg/disc [20]: 10 mm; zone of inhibition at 500 µg/disc [22]: 16 mm; diameter of the inhibition zone (DIZ) [24]: inactive; MIC [30]: 15.6 µg/mL (≈ 68.7 µM); MIC [31]: 7.8 µg/mL (≈ 34.3 µM); MIC [32]: 7.8 µg/mL (≈ 34.3 µM); MIC [33]: 31.2 µg/mL (≈ 137 µM); MIC [34]: 15.6 µg/mL (≈ 68.7 µM); MIC [35]: 62.5 µg/mL (≈ 275 µM); MIC [36]: 7.8 µg/mL (≈ 34.3 µM)
